Measured values reported in patent US6043212A, “Recombinant C140 receptor, its agonists and antagonists, and nucleic acids encoding the receptor” (COR Therapeutics, Inc., priority 1995, dated 2000).
Peptide text beside a SMILES is read from it.

Molecular target: T1, wild-type mouse C140 receptor (Mus musculus, UniProt P55086)
T1 construct: Native receptors were produced by cloning the coding region of the receptor gene; expressed in transfected cells; host or cells: Xenopus laevis oocytes injected with capped cRNA from pSG-5 C140
T1 sequence (P55086 32-399 limits assumed): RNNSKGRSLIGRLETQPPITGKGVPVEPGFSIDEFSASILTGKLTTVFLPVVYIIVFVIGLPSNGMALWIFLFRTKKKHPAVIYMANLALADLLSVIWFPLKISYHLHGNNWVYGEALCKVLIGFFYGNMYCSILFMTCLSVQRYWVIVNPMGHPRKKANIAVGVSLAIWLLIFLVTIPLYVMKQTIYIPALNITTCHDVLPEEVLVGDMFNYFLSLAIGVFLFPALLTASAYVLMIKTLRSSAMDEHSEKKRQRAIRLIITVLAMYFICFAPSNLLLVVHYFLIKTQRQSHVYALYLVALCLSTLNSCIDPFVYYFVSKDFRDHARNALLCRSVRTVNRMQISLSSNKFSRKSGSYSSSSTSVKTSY
Assay: 45Ca release by Xenopus oocytes expressing wild-type mouse C140 receptor
Type: cell-based
Conditions: Table 2; peptides at 100 μM; wild-type mouse C140 receptor in oocytes
Experimental: Agonist-induced increases in ^45 Ca release by oocytes expressing cRNA encoding C140 receptor or other recombinant cells producing C140 receptor are assessed by published techniques (Williams, J. A., et al., Proc Natl Acad Sci USA (1988) 85:4939-4943). Briefly, intracellular calcium pools are labeled by incubating groups of 30 oocytes in 300 μl calcium-free modified Barth's solution (MBSH) containing 50 μCi ^45 CaCl2 (10-40 mCi/mg Ca; Amersham) for 4 hours at RT. The labeled oocytes or cells are washed, then incubated in MBSH II without antibiotics for 90 minutes. Groups of 5 oocytes are selected and placed in individual wells in a 24-well tissue culture plate (Falcon 3047) containing 0.5 ml/well MBSH II without antibiotics. This medium is removed and replaced with fresh medium every 10 minutes; the harvested medium is analyzed by scintillation counting to determine ^45 Ca released by the oocytes during each 10-minute incubation. The 10-minute incubations are continued until a stable baseline of ^45 Ca release per unit time is achieved. Two additional 10-minute collections are obtained, then test medium including agonist is added and agonist-induced ^45 Ca release determined.
Oocytes from Xenopus laevis were harvested and prepared using published techniques (Coleman, A., in Hames, B. D., and Higgins, S. J., eds, Transcription and Translation: A Practical Approach, IRL Press, pp. 271-302; Williams, J. A., et al. Proc Natl Acad Sci USA (1988) 85:4939-4943]. To remove follicular cells, oocytes were incubated for 1.5 h with shaking in calcium-free Barth's containing 2 mg/ml each of collagenase 1A and hyaluronidase 1S. The oocytes were then washed five times in regular Barth's and incubated at 18° C. in Barth's medium containing 100 U/ml penicillin, 100 μg/ml streptomycin, and 2.5 mM sodium pyruvate. Stage V oocytes were selected and injected with 30 nl of cRNA (0.33 μg/μl water) or water alone, and then incubated with 0.25 ml of medium in groups of four/well in a 96-well culture plate. After 36 hours the oocytes were incubated with ^45 Ca (250 μCi/ml). After 12 h incubation the oocytes were washed and 0.2 ml of medium added and replaced every five minutes. The harvested medium was analyzed by scintillation counting. After five replacements to determine the baseline release of ^45 Ca, test medium with the agonist, e.g. SLIGRL (SEQ ID NO: 23), was added and the evoked ^45 Ca-release determined.
Oocytes were injected with capped cRNA (ca 10 ng) encoding wild-type mouse C140 receptor (WT) or either of the three mutant receptors 35Pro, 35Arg and 35His. After 36 hours, cRNA-injected and control water-injected, oocytes were loaded with ^45 Ca, and 12 hours thereafter peptide or trypsin-induced ^45 Ca release were determined as described above. The peptide SLIGRL (SEQ ID NO: 23) was added at 100 μM, and trypsin at 300 pM. The stimulation with the peptide was done on the same group of oocytes after the stimulation with trypsin. The data shown in Table 1 represent the mean of three replicate determinations, and denotes the increase compared to oocytes injected with water.
Various peptides were tested at 100 μM in the assay above using wild-type mouse C140 receptor, expressed in oocytes.

CC[C@H](C)[C@H](NC(=O)[C@H](CC(C)C)NC(=O)[C@H](C)N)C(=O)NCC(=O)N[C@@H](CCCNC(=N)N)C(=O)N[C@@H](CC(C)C)C(=O)O [ALIGRL] (H-ALIGRL-OH)
Fold increase in 45Ca: 1.3 fold

CC[C@H](C)[C@H](NC(=O)[C@H](C)NC(=O)[C@@H](N)CO)C(=O)NCC(=O)N[C@@H](CCCNC(=N)N)C(=O)N[C@@H](CC(C)C)C(=O)O [SAIGRL] (H-SAIGRL-OH)
Fold increase in 45Ca: 0 fold

CC(C)C[C@H](NC(=O)[C@H](Cc1ccccc1)NC(=O)[C@H](Cc1ccccc1)NC(=O)[C@@H](N)CO)C(=O)N[C@@H](CCCNC(=N)N)C(=O)N[C@@H](Cc1c[nH]c2ccccc12)C(=O)O [SFFLRW, reference compound] (H-SFFLRW-OH)
Fold increase in 45Ca: 1.7 fold

CC(C)C[C@H](NC(=O)[C@H](CCCNC(=N)N)NC(=O)CNC(=O)[C@H](C)NC(=O)[C@H](CC(C)C)NC(=O)[C@@H](N)CO)C(=O)O [SLAGRL] (H-SLAGRL-OH)
Fold increase in 45Ca: 0 fold

CC[C@H](C)[C@H](NC(=O)[C@H](CC(C)C)NC(=O)[C@@H](N)CO)C(=O)N[C@@H](C)C(=O)N[C@@H](CCCNC(=N)N)C(=O)N[C@@H](CC(C)C)C(=O)O [SLIARL] (H-SLIARL-OH)
Fold increase in 45Ca: 4.3 fold

CC[C@H](C)[C@H](NC(=O)[C@H](CC(C)C)NC(=O)[C@@H](N)CO)C(=O)NCC(=O)N[C@@H](C)C(=O)N[C@@H](CC(C)C)C(=O)O [SLIGAL] (H-SLIGAL-OH)
Fold increase in 45Ca: 0 fold

CC[C@H](C)[C@H](NC(=O)[C@H](CC(C)C)NC(=O)[C@@H](N)CO)C(=O)NCC(=O)N[C@@H](CCCNC(=N)N)C(=O)N[C@@H](C)C(=O)O [SLIGRA] (H-SLIGRA-OH)
Fold increase in 45Ca: 8.5 fold
